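All cell lines were grown in 96-well plates and treated with compound for 48 hours. GI50: concentration for 50% inhibition of growth. TGI denotes the concentration required for complete inhibition of growth.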
Legend:
Test in all cases: inhibition of tumour cell growth, NCI panel, 48 h
DU-145 prostate = tested on: DU-145 prostate
MDA-MB-231 breast = tested on: MDA-MB-231 breast
MDA-MB-435 = tested on: MDA-MB-435
MOLT-4 leukemia = tested on: MOLT-4 leukemia
RXF 393 renal = tested on: RXF 393 renal
SF-539 CNS = tested on: SF-539 CNS
SR leukemia = tested on: SR leukemia
T-47D breast = tested on: T-47D breast
U251 CNS = tested on: U251 CNS
UO-31 renal = tested on: UO-31 renal

Row | SMILES | TGI (DU-145 prostate) [µM] | TGI (MDA-MB-231 breast) [µM] | TGI (MDA-MB-435) [µM] | TGI (MOLT-4 leukemia) [µM] | TGI (RXF 393 renal) [µM] | TGI (SF-539 CNS) [µM] | TGI (SR leukemia) [µM] | TGI (T-47D breast) [µM] | TGI (U251 CNS) [µM] | TGI (UO-31 renal) [µM] | GI50 (DU-145 prostate) [µM] | GI50 (MDA-MB-231 breast) [µM] | GI50 (MDA-MB-435) [µM] | GI50 (MOLT-4 leukemia) [µM] | GI50 (RXF 393 renal) [µM] | GI50 (SF-539 CNS) [µM] | GI50 (SR leukemia) [µM] | GI50 (T-47D breast) [µM] | GI50 (U251 CNS) [µM] | GI50 (UO-31 renal) [µM]
1 | COc1ccc2c(c1)c(=O)c1c(NCCCN(C)CCCNc3ccc4c(=O)n(CCN(C)C)c(=O)n5c6ccc(OC)cc6c(=O)c3c45)ccc3c(=O)n(CCN(C)C)c(=O)n2c31 | 1.18 | 2.56 | 0.756 | 0.118 | 0.602 | 1.95 | 0.255 | 9.43 | 1.26 | 1.01 | – | – | – | – | – | – | – | – | – | –
2 | CC(=O)Nc1ccc(N2C(=O)CS(=O)(=O)C2c2cccc(Oc3ccccc3)c2)cc1 (stereo not given) | > 100 | 36 | 48.5 | 62.9 | 39.7 | 36.4 | 48.7 | 58.3 | 32.6 | 33.8 | – | – | – | – | – | – | – | – | – | –
3 | O=C(Nc1ccc(-n2cc(-c3ccncc3)c(-c3ccc(O)c(Cl)c3)n2)cc1)c1cc(Cl)cc(Cl)c1 | > 32.5 | 1.45 | > 32.5 | > 32.5 | 1.13 | > 32.5 | > 32.5 | > 32.5 | > 32.5 | > 32.5 | 2.17 | 0.647 | 1.87 | 1.29 | 0.575 | 1.01 | 1.36 | 18.6 | 1.32 | 1.62
4 | COc1cc(CCNC2=CC(=O)c3cccnc3C2=O)ccc1O | 3.11 | 2.08 | 0.317 | 18.2 | 4.07 | 3.04 | 12.2 | 35.1 | 7.05 | 2.83 | – | – | – | – | – | – | – | – | – | –
5 | N#CN=C1c2ccccc2C(=NC#N)c2cc(CO)ccc21 | 69 | > 100 | 80.3 | 59 | 81.5 | > 100 | 43 | 89.2 | > 100 | > 100 | – | – | – | – | – | – | – | – | – | –
6 | CN(C)Cc1cc(C(C)(C)C)cc(CNC2CCCCC2)c1O | > 100 | > 100 | > 100 | 33.5 | > 100 | 63.5 | 71.8 | > 100 | > 100 | 34.6 | – | – | – | – | – | – | – | – | – | –
7 | Cc1ccc(C(=O)Cc2nc3ncccc3[nH]c2=O)cc1 | > 100 | 60.7 | 39.8 | > 100 | > 100 | 74.9 | > 100 | > 100 | 52.7 | > 100 | – | – | – | – | – | – | – | – | – | –
8 | O=c1[nH]nc(-c2ccc([N+](=O)[O-])cc2)n1/N=C/c1ccc([N+](=O)[O-])cc1 | > 100 | > 100 | > 100 | > 100 | > 100 | > 100 | > 100 | > 100 | > 100 | > 100 | – | – | – | – | – | – | – | – | – | –
9 | OC12C3C4CC5C(C4[C@@H]1Br)C2[C@@](O)(c1c(F)c(F)c(F)c(F)c1F)C53 (stereo not given in full) | > 100 | > 100 | > 100 | > 100 | 94.3 | > 100 | 52.7 | > 100 | > 100 | 95.2 | – | – | – | – | – | – | – | – | – | –
10 | OCCN1CN(c2nc(N3CN(CCO)C3)nc(N3CN(CCO)C3)n2)C1 | 54.7 | 36.6 | 32.4 | > 100 | 44.8 | 35 | > 100 | 64.7 | 53 | 56.1 | – | – | – | – | – | – | – | – | – | –
11 | O=S(=O)(O)c1ccc2c(N=Nc3ccccc3)c(O)c(S(=O)(=O)O)cc2c1 | > 100 | > 100 | > 100 | > 100 | > 100 | > 100 | > 100 | > 100 | > 100 | > 100 | – | – | – | – | – | – | – | – | – | –
12 | CCN(CC)c1ccc(/C=c2\nc(-c3ccccc3)n3c2nc2ccccc23)cc1 | > 100 | > 100 | 48.8 | > 100 | 61 | 11.4 | > 100 | 5.84 | > 100 | > 100 | – | – | – | – | – | – | – | – | – | –
13 | CCN(CC)c1ccc2c(c1)Oc1ccc(N(C(C)=O)c3ccccc3)cc1C21OC(=O)c2ccccc21 (stereo not given) | > 100 | > 100 | > 100 | > 100 | > 100 | > 100 | > 100 | > 100 | > 100 | > 100 | – | – | – | – | – | – | – | – | – | –
14 | CC1(CCc2ccccc2)CC1(Br)Br (stereo not given) | > 100 | > 100 | 60.1 | 56 | 41.2 | > 100 | 41.6 | > 100 | > 100 | > 100 | – | – | – | – | – | – | – | – | – | –

Reference: PubChem BioAssay (NCI)
